Data from patent US10774076B2, “Benzazole compounds and methods for making and using the compounds” (Rigel Pharmaceuticals, Inc., priority 2015, dated 2020).

How the values were obtained:
[1] = test system: IL23p19; experiment: LPS Induced IL23p19 in THP-1 Cells (with IFNγ Primed) Assay; type: cell-based; details: Homo sapiens, IFNγ primed (50 ng/mL), LPS 1 ug/mL, 18 hours, 10 pt, read-out: IL23-p19 ELISA, THP1-IFNy, LPS, 10 pt EC50
From the text: LPS Induced IL23p19 in THP-1 Cells (with IFNγ Primed) Assay
THP-1 Cells (ATCC, Cat # TIB-202), Dimethyl Sulfoxide (DMSO) (Sigma-Aldrich, Cat # D2650), RPMI 1640 (Cellgro, Cat #10-040-CM), Fetal Bovine Serum (Sigma, Cat # F4135), Albumin From Bovine Serum (BSA) (Sigma-Aldrich, Cat # A7906), LPS (Serotype K-235, Sigma, Product Number L 2143), IFNγ (Peprotech, Cat #300-02)
Capture antibody: Human IL-23p19 ELISA (e-Bioscience, Cat. #14-7238-85),
Detection antibody: Primary Mouse Biotinylated anti-human IL-12(p40/p70) (e-Bioscience, Cat. #13-7129-85), Secondary HRP-conjugated Streptavidin (R&D Systems, Cat # DY998), 1×PBST Washing Buffer (PBS-Tween tablet) (VWR International, Cat #80058-558), ELISA Blocking Buffer (PBS with 1% BSA), ELISA Dilution Buffer (PBS with 1% BSA), 384 Well Flat-Bottom, MaxiSorp Black Immuno Plates (Thermo Scientific, Cat #12-565-346), 384 Well Flat-Bottom, White Tissue Culture Plates (Thermo Scientific, Cat #12-565-343), Super Signal ELISA Pico Chemiluminescent Substrate (Thermo Scientific, Cat #37070), Cell Titer Glo reagent (Promega, Cat # G7573), Positive control, IKK2VI inhibitor (Calbiochem, Cat #401483), AquaMax 4000 plate washer (Molecular Devices), Luminometer, Wallac Victor2 1420 Multilabel Counter. Method THP-1 Cells Stimulation:
On day 1, 50K/well THP-1 cells were seeded and primed with IFNγ (50 ng/mL) in 384-well plates for about 18 hours in RPMI media with 10% FBS. On day 2, the compound was serially diluted in DMSO from 5 mM in 3-fold dilutions, and then diluted 1:125 in RPMI media with 10% FBS. 50 μL/well 2× compound was added to 50 μL/well THP-1 cells (with IFNγ primed) in duplicate in 384 well tissue culture plates. The cells were pre-incubated with compound for 1 hour at 37° C., 5% CO2 before addition of 10 μL/well 11×LPS to give a final concentration of 1 ug/mL LPS. Day 3, after stimulation for 18 hours at 37° C., 5% CO2, the assay plate was centrifuged and 70 μL/well supernatant was harvested. IL-23p19 protein in 70 μL/well of supernatant was measured by sandwich ELISA, and 25 μl/well Cell Titer Glo reagent was added to the remaining cells to measure compound toxicity.
Human IL-23p19 Sandwich ELISA:
Maxisorp immuno ELISA plates were pre-coated with 25 μL/well of anti-IL-23p19 capture antibody (2.5 ug/mL) in PBS overnight at room temperature. After washing with 1×PBST, the plates were blocked using 100 μL/well of 1% BSA in PBS for 2 hours at room temperature. The plates were washed three times with 1×PBST and 70 μL/well supernatant were added. The plates were incubated at room temperature for 2 hours with shaking and washed three times with 1×PBST. 25 μL/well of biotin labeled anti-IL-12(p40/p70) detection antibody (100 ng/mL) in PBS with 1% BSA was added and the plates were incubated at room temperature for 2 hours with shaking. After washing three times with 1×PBST, 25 μL/well of streptavidin-HRP (1:200) in PBS with 1% BSA was added and the plates were incubated at room temperature for 20 minutes with shaking. The plates were washed three times with 1×PBST and 25 μL/well of Super Signal ELISA Pico Chemiluminescent Substrate were added. The plates were read with a luminometer, and the chemiluminescence values were entered into Athena (Rigel) for curve fitting, EC50 calculation, and database storage.

[2] = test system: IL23-p19; experiment: Compound screening using DC cells: LPS-induced IL-23 (p19/p40) ELISA in IFNγ-primed dendritic cells differentiated from human PBMC; type: cell-based; details: Dendritic cell, human PBMC-derived dendritic cells, LPS 1 μg/ml, 18 hours, 10 pt
Method: Compound Screening Using DC Cells
Human PBMC cells (400 million) obtained from the vendor were transferred into a T-175 flask containing 15 ml RPMI media (10% FBS) and incubate for 2 hours at 37° C. After 2 hours, the media including floating cells was aspirated out carefully and 12 ml of fresh RPMI media (10% FBS) containing GMCSF (100 ng/ml) and IL4 (20 ng/ml) was added, and the flask was kept in a 37° C. incubator for 7 days.
After 3 days, fresh GMCSF (100 ng/ml) and IL4 (20 ng/ml) were added to the flask and the incubation continued. After 7 days, the fully differentiated cells were harvested by spinning down (1200 rpm/5 min) and aspirating the media. The cells were suspended in fresh RPMI media (10% FBS) containing 50 ng/ml IFNγ (1000 U/ml) and then plated (50K/well in 100 μl) onto a white clear bottom 96 well plate and left in a 37° C. incubator for 24 hours.
After 24 hours incubation, 100 μl of RPMI media was added containing 2× concentrated test compound per well to the above cell-culture media (final concentration becomes 1×) and the plates were pre-incubated for 1 hour at 37° C. before stimulating with LPS.
After 1 hour compound pre-incubation, 10 μl per well of 20× concentrated LPS solution in RPMI media was added to give a final concentration of 1 μg/ml. The mixture was shaken and incubated the plates at 37° C. for an additional 18 hours.
155 μl of the supernatant was harvested from each well carefully (without the tip touching the bottom of the well) and to the remaining 50 μl/well of the cell culture plate was added 50 μl of Cell Titer Glo reagent. The mixture was incubated for 1-2 minutes on a shaker and the plate was read for luminescence intensity to determine the compound cytotoxicity. The cell culture supernatant collected above was used to carry out IL23 ELISA (65 μl—Supernatant) and IL10 ELISA (90 μl—Supernatant) as described below.
Human IL-23 (p19/p40) ELISA Protocol (e-Biosciences)
To 10.5 ml PBS add 50 μl of anti-IL23 (p19) was added capture antibody (2.5 μg/ml). The mixture was mixed well and 100 μl of the coating solution was added to each well of the 96 well white plates from Pierce. The wells were covered and incubated overnight at 4° C.
The anti-IL23 (p19)-antibody-coated plates were washed 2× using TBST (use plate washer) and blocked using 200 μl of 0.5% Casein for 1.5-2 hours at room temperature with shaking.
The plates were washed 2× using TBST and the supernatant was transferred (65 μl/well) to the above pre-blocked/IL23(p19)-antibody-coated 96 well plate, and incubated at room temperature for 1.5 hours with shaking.
The plates were washed 4× using TBST (plate washer) and 100 μl/well detection antibody solution prepared from 2 μl of biotin labeled anti-IL-12 (p40/p70) antibody in 11 ml 1% BSA/PBS solution (I-5000 dilution) was added. The plates were incubated for 1 hour with shaking at Room temperature.
Again, the plates were washed 4× with TBST and 100 μl of HRP labeled Streptavidin (R&D Systems) solution (10 μl/10 ml 1% BSA solution) was added, and the plates were incubated at room temperature for another 45 minutes with shaking.
After 45 minutes, the plates were washed with TBST 4× and 100 ul/well Super Signal ELISA Pico Chemiluminescent Substrate from Pierce (3.5 ml A+3.5 ml B+3.5 ml MQ water) was added. The plates were shaken for 1-2 minutes then read on a plate reader.

Row | SMILES | EC50 [1] [nM] | EC50 [2] [nM]
1 | CN(CCN1CCOCC1)c1nc2cc(N3CCCCC3)c(NC(=O)c3ccc(-c4cn[nH]c4)o3)cc2o1 [Compound I-53, N-(2-(methyl(2-morpholinoethyl)amino)-5-(piperidin-1-yl)benzo[d]oxazol-6-yl)-5-(1H-pyrazol-4-yl)furan-2-carboxamide] | 180 | 121
2 | COCCN(C)c1nc2cc(N3CCCCC3)c(NC(=O)c3ccc(-c4cn[nH]c4)o3)cc2o1 [Compound I-50, N-(2-((2-methoxyethyl)(methyl)amino)-5-(piperidin-1-yl)benzo[d]oxazol-6-yl)-5-(1H-pyrazol-4-yl)furan-2-carboxamide] | 133 | 75.7
3 | O=C(Nc1cc2oc(N3CCOCC3)nc2cc1N1CCCCC1)c1ccc(-c2cc[nH]n2)o1 [Compound I-4, N-(2-morpholino-5-(piperidin-1-yl)benzo[d]oxazol-6-yl)-5-(1H-pyrazol-3-yl)furan-2-carboxamide] | 901 | 12100
4 | O=C(Nc1cc2oc(N3CCOCC3)nc2cc1N1CCC(F)CC1)c1csc(-c2cn[nH]c2)n1 [Compound I-25, N-(5-(4-fluoropiperidin-1-yl)-2-morpholinobenzo[d]oxazol-6-yl)-2-(1H-pyrazol-4-yl)thiazole-4-carboxamide] | 48.2 | 122
5 | O=C(Nc1cc2oc(N3CCOCC3)nc2cc1N1CCOCC1)c1ccc(-c2cn[nH]c2)o1 [Compound I-48, N-(2,5-dimorpholinobenzo[d]oxazol-6-yl)-5-(1H-pyrazol-4-yl)furan-2-carboxamide] | 58.5 | 123
6 | O=C(Nc1cc2oc(N3CCOCC3)nc2cc1N1CCCC1)c1ccc(-c2cn[nH]c2)o1 [Compound I-46, N-(2-morpholino-5-(pyrrolidin-1-yl)benzo[d]oxazol-6-yl)-5-(1H-pyrazol-4-yl)furan-2-carboxamide] | 58.7 | 37.5
7 | O=C(Nc1cc2oc(N3CCCCC3)nc2cc1N1CCCCC1)c1csc(-c2cn[nH]c2)n1 [Compound I-35, N-(2,5-di(piperidin-1-yl)benzo[d]oxazol-6-yl)-2-(1H-pyrazol-4-yl)thiazole-4-carboxamide] | 321 | 666
8 | O=C(Nc1cc2oc(N3CCOCC3)nc2cc1N1CCCC(F)(F)C1)c1ccc(-c2cn[nH]c2)o1 [Compound I-42, N-(5-(3,3-difluoropiperidin-1-yl)-2-morpholinobenzo[d]oxazol-6-yl)-5-(1H-pyrazol-4-yl)furan-2-carboxamide] | 60.6 | 84.8
9 | CN(CCN1CCOCC1)c1nc2cc(N3CCCCC3)c(NC(=O)c3csc(-c4cn[nH]c4)n3)cc2o1 [Compound I-54, N-(2-(methyl(2-morpholinoethyl)amino)-5-(piperidin-1-yl)benzo[d]oxazol-6-yl)-2-(1H-pyrazol-4-yl)thiazole-4-carboxamide] | 106 | 60.3

Further lines, results first:

Row | EC50 [1] [nM] | EC50 [2] [nM] | SMILES
10 | 2180 | 1710 | CN1CCN(c2nc3cc(N4CCCCC4)c(NC(=O)c4csc(-c5cc[nH]n5)n4)cc3o2)CC1 [Compound I-21, N-(2-(4-methylpiperazin-1-yl)-5-(piperidin-1-yl)benzo[d]oxazol-6-yl)-2-(1H-pyrazol-3-yl)thiazole-4-carboxamide]
11 | 4630 | 2990 | Cc1cc(-c2ccc(C(=O)Nc3cc4oc(N5CCOCC5)nc4cc3N3CCCCC3)o2)ccn1 [Compound I-10, 5-(2-methylpyridin-4-yl)-N-(2-morpholino-5-(piperidin-1-yl)benzo[d]oxazol-6-yl)furan-2-carboxamide]
12 | 342 | 402 | Cc1cc(-c2nc(C(=O)Nc3cc4oc(N5CCOCC5)nc4cc3N3CCCC(F)(F)C3)cs2)ccn1 [Compound I-45, N-(5-(3,3-difluoropiperidin-1-yl)-2-morpholinobenzo[d]oxazol-6-yl)-2-(2-methylpyridin-4-yl)thiazole-4-carboxamide]
13 | 147 | 2580 | Cc1cc(-c2nc(C(=O)Nc3cc4oc(N5CCOCC5)nc4cc3N3CCCC(F)C3)cs2)ccn1 (stereo not drawn) [Compound I-41, N-(5-(3-fluoropiperidin-1-yl)-2-morpholinobenzo[d]oxazol-6-yl)-2-(2-methylpyridin-4-yl)thiazole-4-carboxamide]
14 | 677 | 3180 | Cc1cc(-c2nc(C(=O)Nc3cc4oc(N5CCN(C)CC5)nc4cc3N3CCCCC3)cs2)ccn1 [Compound I-22, N-(2-(4-methylpiperazin-1-yl)-5-(piperidin-1-yl)benzo[d]oxazol-6-yl)-2-(2-methylpyridin-4-yl)thiazole-4-carboxamide]
15 | 938 | 674 | CN1CCN(c2nc3cc(N4CCCCC4)c(NC(=O)c4csc(-c5ccc(N)nc5)n4)cc3o2)CC1 [Compound I-19, 2-(6-aminopyridin-3-yl)-N-(2-(4-methylpiperazin-1-yl)-5-(piperidin-1-yl)benzo[d]oxazol-6-yl)thiazole-4-carboxamide]
